The nature of data set [1]: logP by HPLC on reversed-phase column (EEC Directive 79/831 Annex V.A8). Type of data set: physicochemical. The settings on record: 40° C., 0.1% aqueous formic acid and acetonitrile, linear gradient 10% to 90% acetonitrile. In a few lines: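 Reversed-phase C18 HPLC at 40° C with 0.1% aqueous formic acid/acetonitrile, linear gradient 10% to 90% acetonitrile. LogP obtained from retention time by linear interpolation between successive unbranched alkan-2-ones (3 to 16 carbons) of known logP. Lambda-max taken from UV spectra at 200-400 nm at chromatographic peak maxima.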

The next data set concerns Alternaria solani. As to the kind of experiment: in vivo preventive test on Alternaria solani (tomato). The settings on record: 500 ppm of active ingredient, evaluated 7 days after inoculation. In outline:
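Young tomato plants were sprayed preventively with compound in DMF/alkylarylpolyglycolether diluted in water, then inoculated one day later with A. solani spores. Incubation was 1 day at about 22 °C and 100% RH, then about 20 °C and 96% RH. Efficacy was scored 7 days after inoculation (0% = untreated control, 100% = no disease).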

In a further data set the test system is Pyrenophora teres. Description: in vivo preventive test on Pyrenophora teres (barley). The settings on record: 500 ppm of active ingredient, evaluated 7-9 days after inoculation. In outline: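 Young barley plants sprayed with compound in DMF/alkylaryl polyglycol ether emulsion; inoculated with P. teres spores one day later. 48 h at 22 °C, 100% humidity, then greenhouse ~20 °C, ~80% humidity; efficacy scored 7-9 days post-inoculation, 0% = untreated, 100% = no disease.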

For a further data set, the system named is Septoria tritici. Description: in vivo preventive test on Septoria tritici (wheat). The settings on record: 500 ppm of active ingredient, evaluated 21 days after inoculation. On the procedure:
Solvent: 49 parts by weight of N,N-dimethylacetamide Emulsifier: 1 part by weight of alkylaryl polyglycol ether To produce a suitable preparation of active compound, 1 part by weight of active compound or active compound combination is mixed with the stated amounts of solvent and emulsifier, and the concentrate is diluted with water to the desired concentration. To test for preventive activity, young plants are sprayed with the preparation of active compound or active compound combination at the stated rate of application. After the spray coating has been dried, the plants are sprayed with a spore suspension of Septoria tritici. The plants remain for 48 hours in an incubation cabinet at approximately 20° C. and a relative atmospheric humidity of approximately 100% and afterwards for 60 hours at approximately 15° C. in a translucent incubation cabinet at a relative atmospheric humidity of approximately 100%. The plants are placed in the greenhouse at a temperature of approximately 15° C. and a relative atmospheric humidity of approximately 80%. The test is evaluated 21 days after the inoculation. 0% means an efficacy which corresponds to that of the untreated control, while an efficacy of 100% means that no disease is observed.

The test system of data set [2] is Blumeria graminis fsp. hordei. As to the kind of experiment: in vivo preventive test on Blumeria graminis (barley). As to conditions: 500 ppm of active ingredient, evaluated 7 days after inoculation. Here is the method: Solvent: 49 parts by weight of N,N-dimethylacetamide Emulsifier: 1 part by weight of alkylaryl polyglycol ether To produce a suitable preparation of active compound, 1 part by weight of active compound or active compound combination is mixed with the stated amounts of solvent and emulsifier, and the concentrate is diluted with water to the desired concentration. To test for preventive activity, young plants are sprayed with the preparation of active compound or active compound combination at the stated rate of application. After the spray coating has been dried, the plants are dusted with spores of Blumeria graminis fsp. hordei. The plants are placed in the greenhouse at a temperature of approximately 18° C. and a relative atmospheric humidity of approximately 80% to promote the development of mildew pustules. The test is evaluated 7 days after the inoculation. 0% means an efficacy which corresponds to that of the untreated control, while an efficacy of 100% means that no disease is observed.

The subject of data set [3] is Fusarium nivale (var. majus). Description: in vivo curative test on Fusarium nivale (wheat). As to conditions: 500 ppm of active ingredient, evaluated 5 days after inoculation. On the procedure: Solvent: 49 parts by weight of N,N-dimethylacetamide Emulsifier: 1 part by weight of alkylaryl polyglycol ether To produce a suitable preparation of active compound, 1 part by weight of active compound or active compound combination is mixed with the stated amounts of solvent and emulsifier, and the concentrate is diluted with water to the desired concentration. To test for curative activity, young plants are slightly injured by using a sandblast and afterwards they are sprayed with a conidia suspension of Fusarium nivale (var. majus) and placed for 24 hours in a greenhouse under a translucent incubation cabinet at a temperature of approximately 10° C. and a relative atmospheric humidity of approximately 100% and are subsequently sprayed with the preparation of active compound at the stated rate of application. After the spray coating has been dried, the plants remain in the greenhouse under translucent incubation cloches at a temperature of approximately 10° C. and a relative atmospheric humidity of approximately 100%. The test is evaluated 5 days after the inoculation. 0% means an efficacy which corresponds to that of the untreated control, while an efficacy of 100% means that no disease is observed.

Another data set has as its system Leptosphaeria nodorum. Description: in vivo preventive test on Leptosphaeria nodorum (wheat). The settings on record: 500 ppm of active ingredient, evaluated 7-9 days after inoculation. Here is the method:
Solvent: 49 parts by weight of N,N-dimethylacetamide Emulsifier: 1 part by weight of alkylaryl polyglycol ether To produce a suitable preparation of active compound, 1 part by weight of active compound is mixed with the stated amounts of solvent and emulsifier, and the concentrate is diluted with water to the desired concentration. To test for preventive activity, young plants are sprayed with a preparation of active compound at the stated rate of application. One day after this treatment, the plants are inoculated with an aqueous spore suspension of Leptosphaeria nodorum. The plants remain for 48 hours in an incubation cabinet at 22° C. and a relative atmospheric humidity of 100%. Then the plants are placed in a greenhouse at a temperature of approximately 22° C. and a relative atmospheric humidity of approximately 90%. The test is evaluated 7-9 days after the inoculation. 0% means an efficacy which corresponds to that of the untreated control, while an efficacy of 100% means that no disease is observed.

Where [4] appears, read: HPLC on reversed-phase column (C 18).

The logP is a log measure of how a compound divides between an organic and an aqueous phase. A higher logP goes with higher lipophilicity. As for `CC(c1cc(Cl)sc1Cl)N(C(=O)c1c(C(F)F)nn(C)c1F)C1CC1` (centres unmarked) [Example 128], the logP in data set [1] (setting [4]) was found to be 4.03. Further, the Efficacy came out at 100% with Alternaria solani; 100% in the data set on Pyrenophora teres; 90% in the data set on Septoria tritici; 100% in data set [2]; 100% in data set [3]; 100% in the data set with Leptosphaeria nodorum.

Take `CC(c1cccc2ccsc12)N(C(=O)c1c(C(F)F)nn(C)c1F)C1CC1` (centres unmarked) [Example 91]: the logP in data set [1] (setting [4]) is on record as 3.44. Further, the Efficacy is reported as 95% in the data set with Alternaria solani; 100% in the data set with Pyrenophora teres; 100% in the data set on Septoria tritici; 94% in data set [2]; 71% in data set [3]; 100% in the data set on Leptosphaeria nodorum.

On to `Cn1nc(C(F)F)c(C(=S)N(Cc2cccc3ccsc23)C2CC2)c1F` [Example 95], for which, in data set [1] (setting [4]), the lipophilicity (logP) was 3.83. For the same compound, the Efficacy with Alternaria solani turned out to be 95%; in the data set on Pyrenophora teres it was 100%; in the data set on Septoria tritici it was 80%; in data set [2], 100%; in data set [3] it was 86%.

The compound `CC(c1cc2ccccc2s1)N(C(=O)c1c(C(F)F)nn(C)c1F)C1CC1` (racemic) [Example 80] displayed a logP in data set [1] (setting [4]) of 3.69. For the same compound, the Efficacy was determined as 100% with Pyrenophora teres; 100% with Septoria tritici; 86% in data set [2]; 93% in data set [3]; 100% in the data set on Leptosphaeria nodorum.

`CC(c1cc2ccccc2o1)N(C(=O)c1c(C(F)F)nn(C)c1F)C1CC1` (racemic) [Example 70] displayed a logP in data set [1] (setting [4]) of 3.42. Moreover, the Efficacy in the data set with Alternaria solani turned out to be 100%; with Pyrenophora teres, 100%; in the data set on Septoria tritici, 100%; in data set [2], 80%; in data set [3], 100%; in the data set on Leptosphaeria nodorum it was 83%.

In turn, `Cc1sc(-c2ccccc2)cc1C(C)N(C(=O)c1c(C(F)F)nn(C)c1F)C1CC1` (centres unmarked) [Example 147] displayed a logP in data set [1] (setting [4]) of 4.41. Besides, the Efficacy in the data set on Alternaria solani was determined as 95%; with Pyrenophora teres it was 100%; in the data set with Septoria tritici, 80%; in data set [2], 70%; in data set [3] it was 92%; in the data set with Leptosphaeria nodorum, 93%.

`CC(C)c1nn(-c2ccccc2)c(Cl)c1CN(C(=O)c1c(C(F)F)nn(C)c1F)C1CC1` [Example 169]: in data set [1] (HPLC, reversed-phase column (C 18)), the logP amounted to 3.94. For the same compound, the Efficacy is listed as 100% with Alternaria solani; 100% in the data set with Pyrenophora teres; 100% with Septoria tritici; 100% in data set [2]; 83% in data set [3]; 100% in the data set on Leptosphaeria nodorum.

These data come from patent publication US9320276B2, “N-hetarylmethyl pyrazolylcarboxamides” (BAYER INTELLECTUAL PROPERTY GMBH, priority 2010, dated 2016).
